In patent US20080241077A1, “BENZOYLGUANIDINE SALT AND HYDRATES THEREOF” (priority 2001, published 2008) one finds stability, solubility and hygroscopicity data, which are given here for one compound.

Counter-ions that a name gives are not always drawn.

Common to all, as to type: physicochemical
Data set [1] can be described thus: Stability of the active substance.
The nature of data set [2]: Solubility in physiologically acceptable solvents.
Data set [3] can be described thus: Hygroscopicity of the active substance.

On to `NC(N)=NC(=O)c1ccc(N2CCN(C(=O)c3ccc[nH]3)CC2)c(C(F)(F)F)c1` [formula 1, 4-[4-(2-pyrrolylcarbonyl)-1-piperazinyl]-3-trifluoromethylbenzoylguanidine hydrochloride], for which the stability entry in data set [1] is “high degree of stability”. Also, the solubility result in data set [2] is given as “dissolves readily”. Further, the hygroscopicity result in data set [3] is listed as “not hygroscopic”.
